Assay results from article PMC6979384, “Characterization of the plant homeodomain (PHD) reader family for their histone tail interactions” (Epigenetics & Chromatin, 2020).

Key:
Assay in all cases: Histone peptide microarray
Type in all cases: binding, human
[1] = tested on: DPF2 (PPC2W2); settings: GST-tagged DPF2 (PPC2W2 = Dual PHD + C2W2-type Zn-finger); histone peptide array; arrays performed twice, n of 4
In short: (§1)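 Mean ± SD of 4 replicate array intensities; GST-PHD finger at 0.5 μM against 293 PTM-bearing histone peptides.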

[2] = tested on: CHD5 (PPCC); settings: GST-tagged CHD5 (PPCC = Dual PHD + Dual Chromodomain); histone peptide array; arrays performed twice, n of 4
In short: as §1

[3] = tested on: PHF8; settings: GST-tagged PHF8; histone peptide array; arrays performed twice, n of 4
In short: as §1

[4] = tested on: PHF21A; settings: GST-tagged PHF21A; histone peptide array; arrays performed twice, n of 4
In short: as §1

[5] = tested on: PHF13; settings: GST-tagged PHF13; histone peptide array; arrays performed twice, n of 4
In short: as §1

[6] = tested on: KDM5B (1); settings: GST-tagged KDM5B (1); histone peptide array; arrays performed twice, n of 4
In short: as §1

[7] = tested on: SP140L; settings: GST-tagged SP140L; histone peptide array; arrays performed twice, n of 4
In short: as §1

[8] = tested on: CHD4 (PPCC); settings: GST-tagged CHD4 (PPCC = Dual PHD + Dual Chromodomain); histone peptide array; arrays performed twice, n of 4
In short: as §1

[9] = tested on: KDM5A (1); settings: GST-tagged KDM5A (1); histone peptide array; arrays performed twice, n of 4
In short: as §1

[10] = tested on: MORC3 (CW); settings: GST-tagged MORC3 (CW = CW-type Zn-finger); histone peptide array; arrays performed twice, n of 4
In short: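 Each reader, produced as a GST fusion and purified, was tested at 0.5 μM on synthetic histone peptides (293 in total) carrying single or combinatorial marks. Intensities averaged over four replicates.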

[11] = tested on: KDM5B (3); settings: GST-tagged KDM5B (3); histone peptide array; arrays performed twice, n of 4
In short: as §1

[12] = tested on: CHD5 (PCC); settings: GST-tagged CHD5 (PCC = PHD + Dual Chromodomain); histone peptide array; arrays performed twice, n of 4
In short: as §1

[13] = tested on: ING3; settings: GST-tagged ING3; histone peptide array; arrays performed twice, n of 4
In short: as §1

[14] = tested on: PHRF1 (RP); settings: GST-tagged PHRF1 (RP); histone peptide array; arrays performed twice, n of 4
In short: as §1

[15] = tested on: KDM4C (TTP); settings: GST-tagged KDM4C (TTP = Tandem Tudor domain + PHD); histone peptide array; arrays performed twice, n of 4
In short: as §1

[16] = tested on: TAF3; settings: GST-tagged TAF3; histone peptide array; arrays performed twice, n of 4
In short: as §1

[17] = tested on: TRIM66 (PB); settings: GST-tagged TRIM66 (PB = PHD + Bromodomain); histone peptide array; arrays performed twice, n of 4
In short: as §1

[18] = tested on: ING2; settings: GST-tagged ING2; histone peptide array; arrays performed twice, n of 4
In short: as §1

[19] = tested on: RAG2; settings: GST-tagged RAG2; histone peptide array; arrays performed twice, n of 4
In short: as §1

[20] = tested on: ING5; settings: GST-tagged ING5; histone peptide array; arrays performed twice, n of 4
In short: as §1

[21] = tested on: KDM7A; settings: GST-tagged KDM7A; histone peptide array; arrays performed twice, n of 4
In short: as §1

[22] = tested on: BAZ2B; settings: GST-tagged BAZ2B; histone peptide array; arrays performed twice, n of 4
In short: as §1

[23] = tested on: MLL5; settings: GST-tagged MLL5; histone peptide array; arrays performed twice, n of 4
In short: as §1

[24] = tested on: PHF2; settings: GST-tagged PHF2; histone peptide array; arrays performed twice, n of 4
In short: as §1

[25] = tested on: PHF23; settings: GST-tagged PHF23; histone peptide array; arrays performed twice, n of 4
In short: as §1

[26] = tested on: BPTF (PB); settings: GST-tagged BPTF (PB = PHD + Bromodomain); histone peptide array; arrays performed twice, n of 4
In short: as §1

[27] = tested on: ING4; settings: GST-tagged ING4; histone peptide array; arrays performed twice, n of 4
In short: as §1

[28] = tested on: AIRE (PP); settings: GST-tagged AIRE (PP); histone peptide array; arrays performed twice, n of 4
In short: as §1

[29] = tested on: DIDO1; settings: GST-tagged DIDO1; histone peptide array; arrays performed twice, n of 4
In short: as §1

[30] = tested on: ING1; settings: GST-tagged ING1; histone peptide array; arrays performed twice, n of 4
In short: as §1

[31] = tested on: KDM5A (3); settings: GST-tagged KDM5A (3); histone peptide array; arrays performed twice, n of 4
In short: as §1

| Substance | Array Heatmap signal, DPF2 (PPC2W2) [1] | Array Heatmap signal, CHD5 (PPCC) [2] | Array Heatmap signal, PHF8 [3] | Array Heatmap signal, PHF21A [4] | Array Heatmap signal, PHF13 [5] | Array Heatmap signal, KDM5B (1) [6] | Array Heatmap signal, SP140L [7] | Array Heatmap signal, CHD4 (PPCC) [8] | Array Heatmap signal, KDM5A (1) [9] | Array Heatmap signal, MORC3 (CW) [10] | Array Heatmap signal, KDM5B (3) [11] | Array Heatmap signal, CHD5 (PCC) [12] | Array Heatmap signal, ING3 [13] | Array Heatmap signal, PHRF1 (RP) [14] | Array Heatmap signal, KDM4C (TTP) [15] | Array Heatmap signal, TAF3 [16] | Array Heatmap signal, TRIM66 (PB) [17] | Array Heatmap signal, ING2 [18] | Array Heatmap signal, RAG2 [19] | Array Heatmap signal, ING5 [20] | also measured |
| --- | --- | --- | --- | --- | --- | --- | --- | --- | --- | --- | --- | --- | --- | --- | --- | --- | --- | --- | --- | --- | --- |
| H4K5ac + K12ac: H4 1-23 | 0.7316 | 0.532 | 0.3854 | 0.4826 | 0.6317 | 0.6768 | 0.3768 | 0.585 | 0.4472 | 0.4134 | 0.4813 | 0.8553 | 0.4957 | 0.4375 | 0.4758 | 0.366 | 0.6577 | 0.648 | 0.3116 | 0.3605 | Array Heatmap signal, KDM7A [21]: 0.3306; Array Heatmap signal, BAZ2B [22]: 0.4409; Array Heatmap signal, MLL5 [23]: 0.6047; Array Heatmap signal, PHF2 [24]: 0.5746; Array Heatmap signal, PHF23 [25]: 0.5561; Array Heatmap signal, BPTF (PB) [26]: 0.414; Array Heatmap signal, ING4 [27]: 0.4639; Array Heatmap signal, AIRE (PP) [28]: 0.3771; Array Heatmap signal, DIDO1 [29]: 0.8034; Array Heatmap signal, ING1 [30]: 0.5734; Array Heatmap signal, KDM5A (3) [31]: 0.5097 |
| H4K5ac: H4 1-23 [Peptide H4K5ac] | 0.6533 | 0.5269 | 0.3344 | 0.436 | 0.6012 | 0.6329 | 0.3459 | 0.5634 | 0.4372 | 0.3392 | 0.4665 | 0.7301 | 0.4744 | 0.4272 | 0.4448 | 0.3079 | 0.6888 | 0.5879 | 0.2578 | 0.3447 | Array Heatmap signal, KDM7A [21]: 0.3174; Array Heatmap signal, BAZ2B [22]: 0.4414; Array Heatmap signal, MLL5 [23]: 0.5676; Array Heatmap signal, PHF2 [24]: 0.5353; Array Heatmap signal, PHF23 [25]: 0.5421; Array Heatmap signal, BPTF (PB) [26]: 0.3451; Array Heatmap signal, ING4 [27]: 0.4388; Array Heatmap signal, AIRE (PP) [28]: 0.3943; Array Heatmap signal, DIDO1 [29]: 0.6701; Array Heatmap signal, ING1 [30]: 0.5387; Array Heatmap signal, KDM5A (3) [31]: 0.423 |
